# Publication PMC7935272 (PLoS Pathogens, 2021)
# Where two headings read alike, the source gives them in different places.
# What was measured:
# MeV [1] = details: cited from earlier work; for IC50: Figure 7A source data; for EC50: experimental activity, read-out: EC50
# [2] = cited from earlier work
# MeV [3] = experiment: Cell-based anti-MeV assays of earlier work
# [4] = −log10(EC50) of literature EC50
Compound,IC50 (MeV [1]) [µM],EC50 (MeV [1]) [µM],CC50 [2] [µM],IC50 (MeV [3]; Figure 7A source data) [µM],IC50 (MeV [3]; [4]) [µM]
"COc1ccccc1S(=O)(=O)c1ccc(NC(=O)c2cc(C(F)(F)F)nn2C)cc1 [3b, S(=O)(=O)(c1c(OC)cccc1)c1ccc(NC(=O)c2n(C)nc(C(F)(F)F)c2)cc1]",3.09,3,> 100,3.1,3.1
"Cn1cc(C(F)(F)F)cc1C(=O)Nc1ccc(S(=O)(=O)N2CCCC2C(=O)O)cc1 (stereo not drawn) [15i, S(=O)(=O)(N1C(C(=O)O)CCC1)c1ccc(NC(=O)c2n(C)cc(C(F)(F)F)c2)cc1]",23,23,> 300,23,23
"Cn1nc(C(F)(F)F)cc1C(=O)Nc1ccc(S(=O)(=O)N2CCCC[C@H]2CCO)cc1 [2k, S(=O)(=O)(N1[C@H](CCO)CCCC1)c1ccc(NC(=O)c2n(C)nc(C(F)(F)F)c2)cc1]",–,0.1,> 100,–,0.1
"Cn1cc(C(F)(F)F)cc1C(=O)Nc1ccc(S(=O)(=O)N2CCC[C@@H]2C(=O)OC(=O)c2ccccc2)cc1 [15h, S(=O)(=O)(N1[C@@H](C(=O)OC(=O)c2ccccc2)CCC1)c1ccc(NC(=O)c2n(C)cc(C(F)(F)F)c2)cc1]",14,14,> 100,14,14
"Cn1cc(C(F)(F)F)cc1C(=O)Nc1ccc(S(=O)(=O)N2CCCCCC2)cc1 [15f, S(=O)(=O)(N1CCCCCC1)c1ccc(NC(=O)c2n(C)cc(C(F)(F)F)c2)cc1]",0.005,0.005,> 300,0.005,0.005
"Cn1nc(C(F)(F)F)cc1C(=O)Nc1ccc(S(=O)(=O)N2CCC[C@@H]2C(=O)O)cc1 [AS-105, S(=O)(=O)(N1[C@@H](C(=O)O)CCC1)c1ccc(NC(=O)c2n(C)nc(C(F)(F)F)c2)cc1]",23,23,> 300,23,23
"CN(C)S(=O)(=O)c1ccc(NC(=O)c2cc(C(F)(F)F)cn2C)cc1 [15m, S(=O)(=O)(N(C)C)c1ccc(NC(=O)c2n(C)cc(C(F)(F)F)c2)cc1]",6.3,6.3,> 300,6.3,6.31
"COCOCC1CCCCN1S(=O)(=O)c1ccc(NC(=O)c2cc(C(F)(F)F)nn2C)cc1 (stereo not drawn) [1a, S(=O)(=O)(N1C(COCOC)CCCC1)c1ccc(NC(=O)c2n(C)nc(C(F)(F)F)c2)cc1]",1.5,1.5,> 100,1.5,1.5
"Cn1cc(C(F)(F)F)cc1C(=O)Nc1ccc(S(=O)(=O)N2CCC(C(F)(F)F)CC2)cc1 [15k, S(=O)(=O)(N1CCC(C(F)(F)F)CC1)c1ccc(NC(=O)c2n(C)cc(C(F)(F)F)c2)cc1]",0.02,0.02,159,0.02,0.02
"Cn1nc(C(F)(F)F)cc1C(=O)Nc1ccc(S(=O)(=O)c2ccccc2O)cc1 [3c, S(=O)(=O)(c1c(O)cccc1)c1ccc(NC(=O)c2n(C)nc(C(F)(F)F)c2)cc1]",4.5,4.5,75,4.5,4.51
"CC1CCN(S(=O)(=O)c2ccc(NC(=O)c3cc(C(F)(F)F)cn3C)cc2)CC1 [15c, S(=O)(=O)(N1CCC(C)CC1)c1ccc(NC(=O)c2n(C)cc(C(F)(F)F)c2)cc1]",0.035,0.035,> 300,0.035,0.0351
"CC(=O)Oc1ccccc1S(=O)(=O)c1ccc(NC(=O)c2cc(C(F)(F)F)nn2C)cc1 [3d, S(=O)(=O)(c1c(OC(=O)C)cccc1)c1ccc(NC(=O)c2n(C)nc(C(F)(F)F)c2)cc1]",4.5,4.5,> 100,4.5,4.51
"Cn1nc(C(F)(F)F)cc1C(=O)Nc1ccc(S(=O)(=O)N2CCCCC2)cc1 [AS-136a, S(=O)(=O)(N1CCCCC1)c1ccc(NC(=O)c2n(C)nc(C(F)(F)F)c2)cc1]",0.014,0.014,> 300,0.014,0.014
"O=C(Nc1ccc(S(=O)(=O)N2CCCC2)cc1)c1nccn1-c1ccccc1C(F)(F)F [MS-12, S(=O)(=O)(N1CCCC1)c1ccc(NC(=O)c2n(-c3c(C(F)(F)F)cccc3)ccn2)cc1]",65,65,> 300,65,65
"Cn1nc(C(F)(F)F)cc1C(=O)Nc1ccc(S(=O)(=O)c2ccccc2)cc1 [3a, S(=O)(=O)(c1ccc(NC(=O)c2n(C)nc(C(F)(F)F)c2)cc1)c1ccccc1]",0.09,0.09,> 100,0.09,0.0902
"CC1CCCC(C)N1S(=O)(=O)c1ccc(NC(=O)c2cc(C(F)(F)F)cn2C)cc1 (stereo not drawn) [15d, S(=O)(=O)(N1C(C)CCCC1C)c1ccc(NC(=O)c2n(C)cc(C(F)(F)F)c2)cc1]",0.014,0.014,> 300,0.014,0.014
"CCN(CC)S(=O)(=O)c1ccc(NC(=O)c2cc(C(F)(F)F)cn2C)cc1 [15n, S(=O)(=O)(N(CC)CC)c1ccc(NC(=O)c2n(C)cc(C(F)(F)F)c2)cc1]",0.0189,0.018,> 300,0.019,0.019
"Cn1nc(C(F)(F)F)cc1C(O)Cc1ccc(S(=O)(=O)N2CCCC2)cc1 (stereo not drawn) [MS-27, S(=O)(=O)(N1CCCC1)c1ccc(CC(O)c2n(C)nc(C(F)(F)F)c2)cc1]",41,41,> 300,41,41
"Cn1nc(C(F)(F)F)cc1C(=O)Nc1ccc(S(=O)(=O)N2CCCCC2CO)cc1 (stereo not drawn) [28c, S(=O)(=O)(N1C(CO)CCCC1)c1ccc(NC(=O)c2n(C)nc(C(F)(F)F)c2)cc1]",0.85,0.85,–,0.85,0.851
"CCn1nc(C(F)(F)F)cc1C(=O)Nc1ccc(S(=O)(=O)N2CCCCC2C)cc1 (stereo not drawn) [9a, S(=O)(=O)(N1C(C)CCCC1)c1ccc(NC(=O)c2n(CC)nc(C(F)(F)F)c2)cc1]",0.055,0.055,30,0.055,0.0551
"CCCN(CCC)S(=O)(=O)c1ccc(NC(=O)c2cc(C(F)(F)F)cn2C)cc1 [15p, S(=O)(=O)(N(CCC)CCC)c1ccc(NC(=O)c2n(C)cc(C(F)(F)F)c2)cc1]",0.19,0.19,> 300,0.19,0.19
"Cn1cc(C(F)(F)F)cc1C(=O)Nc1ccc(S(=O)(=O)N2CCCCCCC2)cc1 [15g, S(=O)(=O)(N1CCCCCCC1)c1ccc(NC(=O)c2n(C)cc(C(F)(F)F)c2)cc1]",0.045,0.045,> 300,0.045,0.0451
"CCOC(=O)C=CC1CCCCN1S(=O)(=O)c1ccc(NC(=O)c2cc(C(F)(F)F)nn2C)cc1 (stereo not drawn) [2g, S(=O)(=O)(N1C(C=CC(=O)OCC)CCCC1)c1ccc(NC(=O)c2n(C)nc(C(F)(F)F)c2)cc1]",6.8,6.8,> 100,6.8,6.81
"Cn1nc(C(F)(F)F)cc1C(=O)Cc1ccc(S(=O)(=O)N2CCCC2)cc1 [MS-26, S(=O)(=O)(N1CCCC1)c1ccc(CC(=O)c2n(C)nc(C(F)(F)F)c2)cc1]",15.5,15.5,> 300,15.5,15.5
"CC1CCCCN1S(=O)(=O)c1ccc(NC(=O)c2cc(C(F)(F)F)cn2C)cc1 (stereo not drawn) [15b, S(=O)(=O)(N1C(C)CCCC1)c1ccc(NC(=O)c2n(C)cc(C(F)(F)F)c2)cc1]",0.0289,0.028,> 300,0.029,0.029
"Cn1cc(C(F)(F)F)cc1C(=O)Nc1ccc(S(=O)(=O)N2CCCCC2)cc1 [15a, S(=O)(=O)(N1CCCCC1)c1ccc(NC(=O)c2n(C)cc(C(F)(F)F)c2)cc1]",0.014,0.014,> 300,0.014,0.014
"CCOC(=O)CCC1CCCCN1S(=O)(=O)c1ccc(NC(=O)c2cc(C(F)(F)F)nn2C)cc1 (stereo not drawn) [2i, S(=O)(=O)(N1C(CCC(=O)OCC)CCCC1)c1ccc(NC(=O)c2n(C)nc(C(F)(F)F)c2)cc1]",6.69,6.6,> 100,6.7,6.71
